Patent US5565486A, “Sesquiterpenes, their preparation and their use as inhibitors acting on the gaba-benzodiazepine receptor” (Xenova Limited, priority 1992, dated 1996)

Key:
[1] = Solubility in organic solvents; assay type: physicochemical; settings: solvents in which soluble
benzodiazepine receptor = test: Benzodiazepine-receptor binding assay ([3H]-flunitrazepam displacement, ox cerebral cortex synaptosomal preparation); settings: for IC50: [3H]-flunitrazepam 1 nM, pH 7.4
Description: The present compounds have shown activity in a benzodiazepine-receptor binding assay which uses a tritiated ligand specific for the receptor present on the purified GABA-Bz-Cl^- ionophore receptor complex. The details of the assay are set out in Example 5 which follows.
The receptor extract was a crude synaptosomal preparation isolated from ox cerebral cortex by the method of Lang et al (FEBS Lett., 104 149-153, 1979). Receptor binding was determined using a modification described by O'Beirne and Williams (Eur. J. Biochem, 175 413-421, 1988) of the method of Braestrup and Squires (PNAS 74 3805-3809, 1977). The receptor preparation was incubated in 50 mM Tris/Cl, pH 7.4, with compound A and [^3 H]-flunitrazepam (agonist) at a final concentration of 1 nM. Bound radioligand was harvested on to glass fibre filters and measured by liquid scintillation counting. Non-specific binding was determined by displacement of ligand with Diazepam (1 μM).
Binding data were fitted to one or two site models by weighted non-linear regression analysis using the computer programs `LIGAND` (Munson and Rodbard: Analytic Biochem 107 220-239, 1980) and `EBDA` (McPherson-Computer Prog. in Biomed. 7 107-114, 1983).
The method described above was repeated using each of compounds B and C described in Examples 3 and 4 respectively, and also using compound D, which is the sodium salt of compound A.
IC50 values were also determined for compounds A', E and F described in Examples 5 to 7 respectively.

C/C1=C\CC(C)(C)/C=C/C[C@@]2(C)OC3=C(O)C(=O)[C@H]4CO[C@H]([C@@H]34)[C@@H]2CC1 [Compound A]
Solubility [1]: Methanol, acetone, ethyl acetate | IC50 (benzodiazepine receptor): 0.04 µM | % Inhibition (benzodiazepine receptor; concentration 3 nM): 11% | % Inhibition (benzodiazepine receptor; concentration 9 nM): 35% | % Inhibition (benzodiazepine receptor; concentration 28 nM): 44% | % Inhibition (benzodiazepine receptor; concentration 93 nM): 65% | % Inhibition (benzodiazepine receptor; concentration 280 nM): 80% | % Inhibition (benzodiazepine receptor; concentration 930 nM): 92% | % Inhibition (benzodiazepine receptor; concentration 3 μM): 93% | % Inhibition (benzodiazepine receptor; concentration 9 μM): 99% | % Inhibition (benzodiazepine receptor; concentration 28 μM): 106% | % Inhibition (benzodiazepine receptor; concentration 93 μM): 107%

C/C1=C\CC(C)(C)/C=C/C[C@@]2(C)Oc3c4c(c(O)c(O)c(=O)c3O)CO[C@H]4[C@@H]2CC1 [Compound B]
Solubility [1]: Methanol, ethyl acetate, chloroform, acetone | IC50 (benzodiazepine receptor): 5 µM | % Inhibition (benzodiazepine receptor; concentration 18 nM): 21% | % Inhibition (benzodiazepine receptor; concentration 53 nM): 21% | % Inhibition (benzodiazepine receptor; concentration 177 nM): 36% | % Inhibition (benzodiazepine receptor; concentration 530 nM): 42% | % Inhibition (benzodiazepine receptor; concentration 2 μM): 53% | % Inhibition (benzodiazepine receptor; concentration 5 μM): 69% | % Inhibition (benzodiazepine receptor; concentration 18 μM): 82% | % Inhibition (benzodiazepine receptor; concentration 53 μM): 92% | % Inhibition (benzodiazepine receptor; concentration 177 μM): 78%

C/C1=C\CC(C)(C)/C=C/C[C@@]2(C)Oc3c4c(cc(O)c(=O)c3O)CO[C@H]4[C@@H]2CC1 [Compound C]
Solubility [1]: Methanol, acetone, ethyl acetate | IC50 (benzodiazepine receptor): 20 µM | % Inhibition (benzodiazepine receptor; concentration 80 nM): 9% | % Inhibition (benzodiazepine receptor; concentration 240 nM): -3% | % Inhibition (benzodiazepine receptor; concentration 800 nM): 9% | % Inhibition (benzodiazepine receptor; concentration 2 μM): 12% | % Inhibition (benzodiazepine receptor; concentration 8 μM): 35% | % Inhibition (benzodiazepine receptor; concentration 24 μM): 54% | % Inhibition (benzodiazepine receptor; concentration 80 μM): 77% | % Inhibition (benzodiazepine receptor; concentration 242 μM): 88%

C/C1=C\CC(C)(C)/C=C/C[C@@]2(C)OC3=C(O)C(=O)[C@H]4CO[C@H]([C@@H]34)[C@@H]2CC1 [Compound D]
IC50 (benzodiazepine receptor): 0.01 µM | % Inhibition (benzodiazepine receptor; concentration 5 nM): 45% | % Inhibition (benzodiazepine receptor; concentration 10 nM): 45% | % Inhibition (benzodiazepine receptor; concentration 50 nM): 70% | % Inhibition (benzodiazepine receptor; concentration 100 nM): 65% | % Inhibition (benzodiazepine receptor; concentration 500 nM): 81% | % Inhibition (benzodiazepine receptor; concentration 1 μM): 86% | % Inhibition (benzodiazepine receptor; concentration 5 μM): 98% | % Inhibition (benzodiazepine receptor; concentration 10 μM): 100% | % Inhibition (benzodiazepine receptor; concentration 50 μM): 103% | % Inhibition (benzodiazepine receptor; concentration 100 μM): 92%

C/C1=C\CC(C)(C)/C=C/C[C@@]2(C)Oc3c(O)c(O)cc4c3[C@@H](OC4)[C@@H]2CC1 [Compound E]
Solubility [1]: methanol, ethyl acetate | IC50 (benzodiazepine receptor): 0.5 µM | % Inhibition (benzodiazepine receptor; concentration 4.8 × 10^-5 M): 101% | % Inhibition (benzodiazepine receptor; concentration 4.8 × 10^-6 M): 88% | % Inhibition (benzodiazepine receptor; concentration 4.8 × 10^-7 M): 52% | % Inhibition (benzodiazepine receptor; concentration 4.8 × 10^-8 M): 37% | % Inhibition (benzodiazepine receptor; concentration 4.8 × 10^-9 M): 22% | % Inhibition (benzodiazepine receptor; concentration 9.5 × 10^-5 M): 104% | % Inhibition (benzodiazepine receptor; concentration 9.5 × 10^-6 M): 93% | % Inhibition (benzodiazepine receptor; concentration 9.5 × 10^-7 M): 65% | % Inhibition (benzodiazepine receptor; concentration 9.5 × 10^-8 M): 42% | % Inhibition (benzodiazepine receptor; concentration 9.5 × 10^-9 M): 27%

C/C1=C\CC(C)(C)/C=C/C[C@@]2(C)OC3=C4C(=CC(=O)C3=O)CO[C@H]4[C@@H]2CC1 [Compound F]
Solubility [1]: methanol | IC50 (benzodiazepine receptor): 3 µM | % Inhibition (benzodiazepine receptor; concentration 2.7 × 10^-4 M): 94% | % Inhibition (benzodiazepine receptor; concentration 2.7 × 10^-5 M): 77% | % Inhibition (benzodiazepine receptor; concentration 2.7 × 10^-6 M): 48% | % Inhibition (benzodiazepine receptor; concentration 2.7 × 10^-7 M): 33% | % Inhibition (benzodiazepine receptor; concentration 2.7 × 10^-8 M): 24% | % Inhibition (benzodiazepine receptor; concentration 9.0 × 10^-5 M): 89% | % Inhibition (benzodiazepine receptor; concentration 9.0 × 10^-6 M): 65% | % Inhibition (benzodiazepine receptor; concentration 9.0 × 10^-7 M): 41% | % Inhibition (benzodiazepine receptor; concentration 9.0 × 10^-8 M): 27% | % Inhibition (benzodiazepine receptor; concentration 9.0 × 10^-9 M): 15%
